Data from paper PMC3532936 (Journal of biomolecular screening, 2011).
Several values for one entry are separate records, joined by “and”; a condition that tells them apart may be missing. Equal entries are not always repeated. Where two headings read alike, the source gives them in different places.

What was measured:
DEN2 CE = target: T1, DEN2 CE (Dengue virus type 2, UniProt P29990); assay type: binding, dengue virus 2 (strain 16681)
T1 sequence (P29990 2493-2755 limits assumed): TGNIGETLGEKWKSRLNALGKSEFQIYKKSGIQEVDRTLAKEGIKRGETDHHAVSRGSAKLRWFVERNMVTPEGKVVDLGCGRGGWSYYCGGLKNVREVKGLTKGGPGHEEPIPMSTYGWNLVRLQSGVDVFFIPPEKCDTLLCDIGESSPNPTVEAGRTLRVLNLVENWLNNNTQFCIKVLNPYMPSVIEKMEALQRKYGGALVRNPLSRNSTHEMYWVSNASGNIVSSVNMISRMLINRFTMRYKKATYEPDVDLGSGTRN

YF CE [1] = target: T2, YF CE (Yellow fever virus, UniProt P03314); assay type: binding, yellow fever virus (strain 17D)
T2 sequence (P03314 2507-2771 limits assumed): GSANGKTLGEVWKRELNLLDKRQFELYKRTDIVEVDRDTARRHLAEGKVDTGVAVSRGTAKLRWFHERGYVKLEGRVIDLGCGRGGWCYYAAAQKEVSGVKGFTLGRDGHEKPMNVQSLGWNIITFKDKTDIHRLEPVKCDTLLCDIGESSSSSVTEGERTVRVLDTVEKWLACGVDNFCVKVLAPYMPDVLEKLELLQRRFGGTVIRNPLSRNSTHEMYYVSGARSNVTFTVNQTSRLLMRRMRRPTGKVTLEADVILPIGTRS

YF CE [2] = target: T2, YF CE
DEN CE = target: T3, DEN CE (Dengue virus type 2, UniProt P29990); assay type: biochemical
T3 sequence (P29990 2493-2755 limits assumed): T1 sequence (P29990 2493-2755 limits assumed)

CE protein (YF or DEN) = settings: read-out: Ki for the displacement of GTP–BODIPY; competition assay; cited from earlier work

SMILES	Ki (DEN2 CE; read-out: apparent Ki, FP, DEN) [µM]	Ki (DEN2 CE; read-out: apparent Ki, TF, DEN) [µM]	Percent Inhibition HTS (YF CE [1]) [%]	Ki (YF CE [2]; read-out: apparent Ki, FP, YF) [µM]	Ki (YF CE [2]; read-out: apparent Ki, TF, YF) [µM]	inhibition of guanylation (in words) (DEN CE)	IC50 (DEN CE; read-out: Guanylation IC50 DEN) [µM]	Ki (CE protein (YF or DEN)) [µM]	average mP value of inhibition (YF CE [1])
COC(=O)[n+]1ccc(N2CCOCC2)cc1 [BAS01531218]	4.8 ± 1.5	2.6 ± 0.5	12	4.9 ± 1	6.2 ± 1.4	–	–	–	–
Cc1ccc(C)n1C(Cc1c[nH]c2ccccc12)C(=O)O (stereo not drawn) [BAS 01211690]	10.1 ± 1.3	9.1 ± 2.5	23	5.8 ± 0.5	5.8 ± 1.7	weaker inhibition of guanylation	78.9 ± 37.8	–	–
Nc1nc2c(ncn2[C@@H]2O[C@H](COP(=O)(O)OP(=O)(O)OP(=O)(O)O)[C@@H](O)[C@H]2O)c(=O)[nH]1 [GTP, guanosine triphosphate, reference compound]	–	–	–	–	–	–	–	0.04	42.4 ± 5.19 mP and 81.8 ± 6.09 mP
Nc1ncnc2c1ncn2[C@@H]1O[C@H](COP(=O)(O)OP(=O)(O)OP(=O)(O)O)[C@@H](O)[C@H]1O [adenosine triphosphate (ATP), adenosine triphosphate]	–	–	–	–	–	–	–	350	–
